Measured values taken from patent US8420119B2, “Drug composition for treating tumor with polymeric micelle encapsulating anti-neoplastic” (Industrial Technology Research Institute, priority 2009, dated 2013).
Values after ≈ are worked out from the molar mass of the structure shown.

Assays:
[1] = tested on: Human colon cancer HT29 cells; assay: In vivo pharmaceutical efficiency comparison of CCP201 with free CPT11, HT29 tumor; design: species or system immunodeficiency mice
Protocol: Human colon cancer HT29 cells were implanted subcutaneously at the dorsal muscles of immunodeficiency mice. […] The administration frequency was twice a week and five times in total. The tumor size and weight of each mouse was monitored. The tumor size was measured and calculated according to the formula V=½ ab^2, wherein V is the volume of the tumor, a is the longest diameter of the tumor, and b is the shortest diameter of the tumor.

[2] = tested on: Human colon cancer HT29 cells; assay: In vivo pharmaceutical efficiency comparison of SCP201 with free CPT11, HT29 tumor; design: species or system immunodeficiency mice
Protocol: (§1) Human colon cancer HT29 cells were implanted subcutaneously at the dorsal muscles of immunodeficiency mice. […] The administration frequency was twice a week and five times in total. The tumor size and weight of each mouse was monitored. The tumor size was measured and calculated according to the formula V=1/2 ab^2, wherein V is the volume of tumor, a is the longest diameter of the tumor, and b is the shortest diameter of the tumor. Human colon cancer Colo205 cells were also tested by the same method described above, except that the mice were divided into 6 groups.

[3] = tested on: Human colon cancer Colo205 cells; assay: In vivo pharmaceutical efficiency comparison of SCP201 with free CPT11, Colo205 tumor; design: species or system immunodeficiency mice
Protocol: as §1

A549 = assay: MTT assay A549; assay type: cell-based, human; details: Lung, A549, 72 hours
Protocol: (§2) Various human cancer lines, such as A549, AS2, and H460, were implanted onto multi-well plates and Dulbecco's Modified Eagle Media (high glucose) with 10% of fetal bovine serum and 1% of P/S being added to each well. […] Then a 20 μL of 0.5 mg/ml MTT (3-(4,5-dimethylthiazol-2-yl)-2,5-diphenyltetrazolium bromide) solution was added to each well to start the reaction. After 2 hours, the suspension of each well was removed and DMSO was added into the well to dissolve formazan, which was formed during the reaction. The living cell concentration was then obtained by analyzing the OD570 and OD600 data of each well.

AS2 = assay: MTT assay AS2; assay type: cell-based, human; details: Lung, AS2, 72 hours
Protocol: as §2

H460 = assay: MTT assay H460; assay type: cell-based, human; details: Lung, H460, 72 hours
Protocol: as §2

HT29 = assay: MTT assay HT29; assay type: cell-based, human; details: Colorectal, HT29, 72 hours
Protocol: as §2

Colo 205 = assay: MTT assay Colo 205; assay type: cell-based, human; details: Colorectal, Colo 205, 72 hours
Protocol: as §2

OVCAR-3 = assay: MTT assay OVCAR-3; assay type: cell-based, human; details: Ovarian, OVCAR-3, 72 hours
Protocol: as §2

RPMI2650 = assay: MTT assay RPMI2650; assay type: cell-based, human; details: Nasalseptum, RPMI2650, 72 hours
Protocol: as §2

SCC-25 = assay: MTT assay SCC-25; assay type: cell-based, human; details: Tongue, SCC-25, 72 hours
Protocol: as §2

[4] = Release test using dialysis bag; assay type: physicochemical; details: dialysis against PBS pH 7.4, 37° C.
Protocol: A 50 μL solution of a pharmaceutical composition, which was prepared according to the method as set forth above, was added into a dialysis bag having a molecular weight cutoff of about 3,500 Daltons, and then was dialyzed against a 50 ml phosphate buffered saline (PBS) (pH 7.4) at 37° C. After 1, 2, 4, and 8 hours of dialysis, 250 μL out-of-bag buffers were taken respectively, and then each was then mixed with 750 μL methanol (in 0.6N HCl). The quantity of each drug, which was released from the polymeric micelle and then dialyzed into the out-of-bag buffer, was determined by HPLC. A 50 μL CPT containing DMSO solution (CPT-DMSO) was used as a control.

[5] = Direct dilution test (remained lactone form); assay type: physicochemical; details: PBS pH 7.4, 37° C.
Protocol: A 150 μL solution of a pharmaceutical composition in accordance with the present disclosure, which was prepared according to the method as set forth above, was mixed with 1350 μL of PBS (pH 7.4), and then incubated at 37° C. After 1, 2, 4, and 8 hours of incubation, 10 μL incubated solutions were taken respectively, and each was mixed with 990 μL of methanol. The quantity of lactone form CPT or SN38 in the mixtures was determined by HPLC. A 150 μL CPT containing DMSO solution (CPT-DMSO) was used as a control.

[6] = In vivo kinetic test of CPT; design: species or system SD mice; details: SD, mouse, plasma
Protocol: The concentrations of lactone form CPT in bloods over the time were then determined by HPLC.
T1/2 (hr), AUCINF(hr*ng/ml), CL(mL/hr/kg), and Vss (mL/kg) in Table 2 represent half-life time, area under the curve to infinity, clearance, and volume of distribution at steady state, and the units thereof, respectively. The n represents sample number. These parameters can be measured and/or calculated according to the techniques known in the art.

[7] = dose 10 mg/kg, total dose 50 mg/kg
[8] = dose 40 mg/kg, total dose 200 mg/kg
[9] = iv, lactone form CPT, 1 mg/kg vein injection

CCc1c2c(nc3ccc(OC(=O)N4CCC(N5CCCCC5)CC4)cc13)-c1cc3c(c(=O)n1C2)COC(=O)[C@]3(O)CC [CPT11, 7-ethyl-10-[4-(1-piperidino)-1-piperidono]carbonyloxy camptothecin]
Tumor Size (mm^3) Vol. ([1]; day 0, 10 mg/kg): 469.6 mm^3
Tumor Size (mm^3) Vol. ([1]; day 4, 10 mg/kg): 745.8 mm^3
Tumor Size (mm^3) Vol. ([1]; day 8, 10 mg/kg): 723.4 mm^3
Tumor Size (mm^3) Vol. ([1]; day 11, 10 mg/kg): 740.8 mm^3
Tumor Size (mm^3) Vol. ([1]; day 13, 10 mg/kg): 786.0 mm^3
Tumor Size (mm^3) Vol. ([1]; day 15, 10 mg/kg): 757.5 mm^3
Tumor Size (mm^3) Vol. ([1]; day 18, 10 mg/kg): 879.8 mm^3
Tumor Size (mm^3) Vol. ([1]; day 20, 10 mg/kg): 902.7 mm^3
Tumor Size (mm^3) Vol. ([1]; day 22, 10 mg/kg): 927.3 mm^3
Tumor Size (mm^3) Vol. ([1]; day 27, 10 mg/kg): 1217.6 mm^3
Maximum weight loss [1, 7]: 27 days
Maximum weight loss % [1, 7]: 17.3%
TIR % (day 21) [1, 7]: 35%
Tumor Size (mm^3) Vol. ([2]; day 0, 10 mg/kg): 142.8 mm^3
Tumor Size (mm^3) Vol. ([2]; day 3, 10 mg/kg): 227.8 mm^3
Tumor Size (mm^3) Vol. ([2]; day 6, 10 mg/kg): 292.7 mm^3
Tumor Size (mm^3) Vol. ([2]; day 9, 10 mg/kg): 384.2 mm^3
Tumor Size (mm^3) Vol. ([2]; day 12, 10 mg/kg): 492.0 mm^3
Tumor Size (mm^3) Vol. ([2]; day 15, 10 mg/kg): 666.0 mm^3
Tumor Size (mm^3) Vol. ([2]; day 18, 10 mg/kg): 853.5 mm^3
Tumor Size (mm^3) Vol. ([2]; day 21, 10 mg/kg): 997.7 mm^3
Tumor Size (mm^3) Vol. ([2]; day 24, 10 mg/kg): 1308.5 mm^3
Tumor Size (mm^3) Vol. ([2]; day 27, 10 mg/kg): 1732.2 mm^3
Maximum weight loss [2, 7]: 27 days
Maximum weight loss % [2, 7]: 9.4%
TIR % (day 21) [2, 7]: 23%
Tumor Size (mm^3) Vol. ([3]; day 0, 40 mg/kg): 152.1 mm^3
Tumor Size (mm^3) Vol. ([3]; day 1, 10 mg/kg): 175.1 mm^3
Tumor Size (mm^3) Vol. ([3]; day 1, 40 mg/kg): 184.6 mm^3
Tumor Size (mm^3) Vol. ([3]; day 3, 10 mg/kg): 192.0 mm^3
Tumor Size (mm^3) Vol. ([3]; day 3, 40 mg/kg): 239.3 mm^3
Tumor Size (mm^3) Vol. ([3]; day 6, 10 mg/kg): 215.0 mm^3
Tumor Size (mm^3) Vol. ([3]; day 6, 40 mg/kg): 215.0 mm^3
Tumor Size (mm^3) Vol. ([3]; day 8, 10 mg/kg): 251.2 mm^3
Tumor Size (mm^3) Vol. ([3]; day 8, 40 mg/kg): 184.7 mm^3
Tumor Size (mm^3) Vol. ([3]; day 10, 10 mg/kg): 262.1 mm^3
Tumor Size (mm^3) Vol. ([3]; day 10, 40 mg/kg): 161.7 mm^3
Tumor Size (mm^3) Vol. ([3]; day 13, 10 mg/kg): 263.5 mm^3
Tumor Size (mm^3) Vol. ([3]; day 13, 40 mg/kg): 110.2 mm^3
Tumor Size (mm^3) Vol. ([3]; day 15, 10 mg/kg): 274.1 mm^3
Tumor Size (mm^3) Vol. ([3]; day 15, 40 mg/kg): 70.9 mm^3
Tumor Size (mm^3) Vol. ([3]; day 17, 10 mg/kg): 293.7 mm^3
Tumor Size (mm^3) Vol. ([3]; day 17, 40 mg/kg): 59.1 mm^3
Tumor Size (mm^3) Vol. ([3]; day 20, 10 mg/kg): 301.4 mm^3
Tumor Size (mm^3) Vol. ([3]; day 20, 40 mg/kg): 37.8 mm^3
Maximum weight loss % [3, 7]: 4.2%
Maximum weight loss (day) [3, 7]: (18) day
TIR % (day 20) [3, 7]: 61%
Maximum weight loss % [3, 8]: 3.7%
Maximum weight loss (day) [3, 8]: (8) day
TIR % (day 20) [3, 8]: 95%
IC50 (A549): 13340 ± 1330 µg/mL (≈ 22.7 mM)
IC50 (AS2): 4200 ± 480 µg/mL (≈ 7.16 mM)
IC50 (H460): 1890 ± 140 µg/mL (≈ 3.22 mM)
IC50 (HT29): 1900 µg/mL (≈ 3.24 mM)
IC50 (Colo 205): 6840 ± 990 µg/mL (≈ 11.7 mM)
IC50 (OVCAR-3): 16750 ± 1430 µg/mL (≈ 28.6 mM)
IC50 (RPMI2650): 1470 ± 260 µg/mL (≈ 2.51 mM)
IC50 (SCC-25): 12350 ± 1160 µg/mL (≈ 21.1 mM)

CC[C@@]1(O)C(=O)OCc2c1cc1n(c2=O)Cc2cc3ccccc3nc2-1 [CPT-DMSO, camptothecin]
percentage of released CPT/SN38 ([4]; 1 hour): 48.2%
percentage of released CPT/SN38 ([4]; 2 hours): 73.9%
percentage of released CPT/SN38 ([4]; 4 hours): 87.2%
percentage of remained lactone form CPT and SN38 ([5]; 2 hours): 26.4%
percentage of remained lactone form CPT and SN38 ([5]; 4 hours): 18.1%
concentration at 0.25 h ([6]; intravenous, 0.25 hour, 1 mg/kg CPT vein injection, read-out: lactone form CPT in plasma): 19.4 ng/mL
concentration at 0.5 h ([6]; intravenous, 0.5 hour, 1 mg/kg CPT vein injection, read-out: lactone form CPT in plasma): 11.6 ng/mL
concentration at 1 h ([6]; intravenous, 1 hour, 1 mg/kg CPT vein injection, read-out: lactone form CPT in plasma): 3.1 ng/mL
concentration at 2 h ([6]; intravenous, 2 hours, 1 mg/kg CPT vein injection, read-out: lactone form CPT in plasma): 0.3 ng/mL
AUC(0-inf) [6, 9]: 16 ± 6 ng·h/mL
clearance [6, 9]: 1160 mL/min/kg
half-life [6, 9]: 15 ± 6 min
Vd ([6]; iv, lactone form CPT, 1 mg/kg vein injection, read-out: Vss): 23.9 ± 6.2 L/kg
